Test results as given in patent publication US8129534B2, “Chemical compounds” (priority 2004, dated 2012).

| SMILES | melting point [°C] |
| --- | --- |
| O=C(Nc1ccnn1C1CCN(C/C=C/c2ccc(Cl)cc2)CC1)c1ccnc(Cl)c1 | 69 to 70 |
| O=C(Nc1cccnc1C1CCN(C/C=C/c2ccc(Cl)cc2)CC1)c1ccnc(Cl)c1 | 78 to 80 |
| O=C(Nc1cccnc1C1=CCN(C/C=C/c2ccc(Cl)cc2)CC1)c1ccnc(Cl)c1 | 75 to 77 |
